A word on the Ki: it is the dissociation constant of the complex between target and ligand, obtained from inhibition or displacement.

Where two headings read alike, the source gives them in different places. A value given as a limit tells only on which side of the number the result lay.

This passage reports Ki and GI50 results from patent US10844044B2 (Vanderbilt University, priority 2018, dated 2020).

One experiment deals with WDR5 (Homo sapiens (Human), UniProt P61964). The experiment can be described thus: TR-FRET binding assay (displacement of 10mer-Thr-FAM probe from WDR5).
In experiment [1] the test system is MV4:11 human cancer cell lines. The experiment can be described thus: Anti-proliferative activity, CellTiter-Glo viability assay, 7 day protocol. Format: cell-based. Particulars: Homo sapiens, MV4-11, 168 h, MV4:11 cells, 7 day incubation, read-out: GI50 on cellular proliferation of MV4:11 human cancer cell lines. The method in brief:
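MV4:11 cells seeded at 3600 cells/ml and exposed to compounds for 7 days, 0.1% DMSO final. Viability measured by CellTiter-Glo luminescence. GI50 from three biological replicates, each in technical triplicate, given as mean ± S.E.M.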
Background: ATP-based viability assays read luminescence as a measure of living cells.

The mark [2] stands for this setting: read-out: Ki for Inhibition of WDR5 by TR-FRET assay, TR-FRET, 10mer-Thr-FAM probe, WDR5-His tag 2 nM, pH 7.0.
Setting [3] is: read-out: Ki for Inhibition of WDR5 by TR-FRET assay.

For `CCn1cc(-c2cc(CN3CCN(C)C3=N)cc(C(=O)N[C@H](c3ccc(F)c(Cl)c3)C3CC3)c2)c(C(F)(F)F)n1` [Example 214, (S)—N-((3-Chloro-4-fluorophenyl)(cyclopropyl)methyl)-3-(1-ethyl-3-(trifluoromethyl)-1H pyrazol-4-yl)-5-((2-imino-3-methylimidazolidin-1-yl)methyl)benzamide], the Ki on WDR5 is less than 0.1 nM. Besides, the GI50 in experiment [1] was less than 100 nM.
`Cc1cc([C@@H](NC(=O)c2cc(CN3CCN(C)C3=N)cc(-c3cn(C(C)C)nc3C(F)(F)F)c2)C2CC2)ccc1F` [Example 215, (S)—N-(Cyclopropyl(4-fluoro-3-methylphenyl)methyl)-3-((2-imino-3-methylimidazolidin-1-yl)methyl)-5-(1-isopropyl-3-(trifluoromethyl)-1H-pyrazol-4-yl)benzamide] gave a Ki at WDR5 of less than 0.1 nM. The GI50 in experiment [1] was less than 100 nM.
Consider `CC(C)n1cc(-c2cc(CN3CCN(C)C3=N)cc(C(=O)N[C@H](c3ccc(F)c(F)c3)C3CC3)c2)c(C(F)(F)F)n1` [Example 216, (S)—N-(Cyclopropyl(3,4-difluorophenyl)methyl)-3-((2-imino-3-methylimidazolidin-1-yl)methyl)-5-(1-isopropyl-3-(trifluoromethyl)-1H-pyrazol-4-yl)benzamide], for which the Ki at WDR5 (setting [2]) is less than 0.1 nM. The GI50 in experiment [1] was less than 100 nM.
For `Cc1cc([C@@H](NC(=O)c2cc(Cn3ccn(C)c3=N)cc(C3(C(F)(F)F)CC3)c2)C2CC2)ccc1F` [Example 217, (S)—N-(cyclopropyl(4-fluoro-3-methylphenyl)methyl)-3-((2imino-3-methyl-2,3-dihydro-1H-imidazol-1-yl)methyl)-5-(1-(trifluoromethyl)cyclopropyl)benzamide] the same measures were less than 0.1 nM and less than 100 nM.
`CN1CCN(Cc2cc(C(=O)N[C@H](c3ccc(F)c(Cl)c3)C3CC3)cc(-c3cccnc3C(F)(F)F)c2)C1=N` [Example 219, (S)—N-((3-chloro-4-fluorophenyl)(cyclopropyl)methyl)-3-((2-imino-3-methylimidazolidin 1-yl)methyl)-5-(2-(trifluoromethyl)pyridin-3-yl)benzamide]: the Ki at WDR5 (setting [2]) is less than 0.1 nM. In experiment [1], the GI50 was less than 100 nM.
With `Cc1cccc(C2(NC(=O)c3cc(Cn4ccn(C)c4=N)cc(-c4cn(C)nc4C(F)(F)F)c3)CCC2)c1` [Example 220, 3-((2-Imino-3-methyl-2,3-dihydro-1H-imidazol-1-yl)methyl)-5-(1-methyl-3-(trifluoromethyl)-1H-pyrazol-4-yl)-N-(1-(m-tolyl)cyclobutyl)benzamide], the Ki at WDR5 (setting [2]) is less than 0.1 nM. For the same compound, in experiment [1], the GI50 stood at 220 nM.
Turning to `COc1cc([C@@H](NC(=O)c2cc(Cn3ccn(C)c3=N)cc(-c3cn(C)nc3C(F)(F)F)c2)C2CC2)ncc1F` [Example 221, (S)—N-(Cyclopropyl(5-fluoro-4-methoxypyridin-2-yl)methyl)-3-((2-imino-3-methyl-2,3-dihydro-1-imidazol-1-yl)methyl)-5-(1-methyl-3-(trifluoromethyl)-1H-pyrazol-4-yl)benzamide], the Ki on WDR5 (setting [2]) is less than 0.1 nM. Also, in experiment [1], the GI50 was less than 100 nM.
Take `Cc1cc([C@@H](NC(=O)c2cc(Cn3ccn(C)c3=N)cc(N3CCOC[C@H]3C)c2)C2CC2)ccc1F` [Example 227, N—((S)-cyclopropyl(4-fluoro-3-methylphenyl)methyl)-3-((2-imino-3-methyl-2,3-dihydro-1H-imidazol-1-yl)methyl)-5-((R)-3-methylmorpholino)benzamide]: on WDR5 (setting [3]), the Ki was 2.1 nM. In addition, the GI50 in experiment [1] was 940 nM.
Take `COc1cc(CNC(=O)c2cc(Cn3ccoc3=N)cc(-c3ccc(F)cc3C)c2)cc(OC)c1` [Example 229, N-(3,5-Dimethoxybenzyl)-4′-fluoro-5-((2-iminooxazol-3(2H)-yl)methyl)-2′-methyl-[1,1′-biphenyl]-3-carboxamide]: the Ki on WDR5 came to 0.21 nM. Moreover, in experiment [1], the GI50 was 550 nM.
For the compound `COc1cc(OC)cc(C(NC(=O)c2cc(Cn3ccoc3=N)cc(-c3ncccc3C(F)(F)F)c2)C2CC2)c1` (stereo not shown) [Example 235, N-(Cyclopropyl(3,5-dimethoxyphenyl)methyl)-3-((2-iminooxazol-3(2H)-yl)methyl)-5-(3-(trifluoromethyl)pyridin-2-yl)benzamide], the inhibition constant (Ki) on WDR5 (setting [2]) came to 3.5 nM. Also, the GI50 in experiment [1] is 3100 nM.
In the case of `COc1cc(OC)cc(C(NC(=O)c2cc(Cn3ccoc3=N)cc(-c3ccc(F)cc3OC(F)F)c2)C2CC2)c1` (stereo not shown) [Example 236, N-(Cyclopropyl(3,5-dimethoxyphenyl)methyl)-2′-(difluoromethoxy)-4′-fluoro-5-((2-iminooxazol-3(2H)-yl)methyl)-[1,1′-biphenyl]-3-carboxamide], the Ki at WDR5 (setting [2]) was 0.16 nM. Besides, the GI50 in experiment [1] was 450 nM.
In the case of `COc1cc(CNC(=O)c2cc(Cn3ccoc3=N)cc(-c3ncc(F)cc3C)c2)cc(OC)c1` [Example 238, N-(3,5-Dimethoxybenzyl)-3-(5-fluoro-3-methylpyridin-2-yl)-5-((2-iminooxazol-3(2H)-yl)methyl)benzamide], the Ki on WDR5 (setting [3]) turned out to be 2.9 nM. Moreover, in experiment [1], the GI50 amounted to 3800 nM.
Regarding `Cc1ccnc([C@@H](NC(=O)c2cc(Cn3ccoc3=N)cc(-c3ccc(F)cc3C)c2)C2CC2)c1` [Example 247, (S)—N-(Cyclopropyl(4-methylpyridin-2-yl)methyl)-4′-fluoro-5-((2-iminooxazol-3(2H)-yl)methyl)-2′-methyl-[1,1′-biphenyl]-3-carboxamide], the Ki on WDR5 (setting [2]) came out at 0.14 nM. The GI50 in experiment [1] was found to be 270 nM.
`Cc1cc([C@@H](NC(=O)c2cc(Cn3ccoc3=N)cc(-c3ccc(F)cc3Cl)c2)C2CC2)ccc1F` [Example 248, (S)-2′-Chloro-N-(cyclopropyl(4-fluoro-3-methylphenyl)methyl)-4′-fluoro-5-((2-iminooxazol-3(2H)-yl)methyl)-[1,1′-biphenyl]-3-carboxamide]: the Ki at WDR5 (setting [2]) is less than 0.1 nM. Also, the GI50 in experiment [1] is 120 nM.
For the compound `Cc1cn(Cc2cc(C(=O)N[C@H](c3ccc(F)c(C)c3)C3CC3)cc(-c3cccnc3C(F)(F)F)c2)c(=N)o1` [Example 250, (S)—N-(Cyclopropyl(4-fluoro-3-methylphenyl)methyl)-3-((2-imino-5-methyloxazol-3(2H)-yl)methyl)-5-(2-(trifluoromethyl)pyridin-3-yl)benzamide], the Ki on WDR5 (setting [2]) was 0.4 nM. Besides, the GI50 in experiment [1] is 570 nM.
For the compound `Cc1cc([C@@H](NC(=O)c2cc(Cn3ccoc3=N)cc(-c3cn(C)nc3C(F)(F)F)c2)C2CC2)ccc1F` [Example 259, (S)—N-(Cyclopropyl(4-fluoro-3-methylphenyl)methyl)-3-((2-iminooxazol-3(2H)-yl)methyl)-5-(1-methyl-3-(trifluoromethyl)-1H-pyrazol-4-yl)benzamide], the inhibition constant Ki on WDR5 (setting [3]) is less than 0.1 nM. Besides, the GI50 in experiment [1] is less than 100 nM.
As for `Cc1cc([C@@H](NC(=O)c2cc(Cn3ccoc3=N)cc(-c3cccnc3OC(F)F)c2)C2CC2)ccc1F` [Example 261, (S)—N-(Cyclopropyl(4-fluoro-3-methylphenyl)methyl)-3-(2-(difluoromethoxy)pyridin-3-yl)-5-((2-iminooxazol-3(2H)-yl)methyl)benzamide], the Ki at WDR5 (setting [2]) was 0.28 nM. For the same compound, the GI50 in experiment [1] is 730 nM.
`Cn1cc(-c2cc(Cn3ccoc3=N)cc(C(=O)N[C@H](c3ccc(Cl)c(Cl)c3)C3CC3)c2)c(C(F)(F)F)n1` [Example 268, (S)—N-(Cyclopropyl(3,4-dichlorophenyl)methyl)-3-((2-iminooxazol-3(2H)-yl)methyl)-5-(1-methyl-3-(trifluoromethyl)-1 t-pyrazol-4-yl)benzamide]: the Ki at WDR5 (setting [3]) is less than 0.1 nM. Further, in experiment [1], the GI50 is less than 100 nM.
Take `Cn1cc(-c2cc(CN3CCOC3=N)cc(C(=O)N[C@H](c3ccc(Cl)c(Cl)c3)C3CC3)c2)c(C(F)(F)F)n1` [Example 269, (S)—V—N-(Cyclopropyl(3,4-dichlorophenyl)methyl)-3-((2-iminooxazolidin-3-yl)methyl)-5-(1-methyl-3-(trifluoromethyl)-1H-pyrazol-4-yl)benzamide]: the Ki at WDR5 (setting [2]) was less than 0.1 nM. The GI50 in experiment [1] is less than 100 nM.
As for `Cc1cc([C@@H](NC(=O)c2cc(CN3CCOC3=N)cc(-c3ccc(F)cc3C(F)F)c2)C2CC2)ccc1F` [Example 272, (S)—N-(Cyclopropyl(4-fluoro-3-methylphenyl)methyl)-2′-(difluoromethyl)-4′-fluoro-5-((2-iminooxazolidin-3-yl)methyl)-[1,1′-biphenyl]-3-carboxamide], the Ki at WDR5 (setting [2]) is less than 0.1 nM. For the same compound, the GI50 in experiment [1] amounted to 100 nM.
Take `Cc1cc([C@@H](NC(=O)c2cc(CN3CCOC3=N)cc(-c3ccc(F)cc3OC(F)F)c2)C2CC2)ccc1F` [Example 273, (S)—N-(Cyclopropyl(4-fluoro-3-methylphenyl)methyl)-2′-(difluoromethoxy)-4′-fluoro-5-((2-iminooxazolidin-3-yl)methyl)-[1,1′-biphenyl]-3-carboxamide]: the inhibition constant (Ki) on WDR5 (setting [2]) is less than 0.1 nM. Moreover, the GI50 in experiment [1] is 140 nM.
On to `Cc1cc([C@@H](NC(=O)c2cc(Cn3ccoc3=N)cc(-c3ccc(F)cc3C(F)F)c2)C2CC2)ccc1F` [Example 274, (S)—N-(Cyclopropyl(4-fluoro-3-methylphenyl)methyl)-2′-(difluoromethyl)-4′-fluoro-5-((2-iminooxazol-3(2H)-yl)methyl)-[1,1′-biphenyl]-3-carboxamide], for which the Ki on WDR5 (setting [2]) was less than 0.1 nM. Also, the GI50 in experiment [1] is less than 100 nM.
For `Cc1cc([C@@H](NC(=O)c2cc(CN3CCOC3=N)cc(-c3cn(C(C)C)nc3C(F)(F)F)c2)C2CC2)ccc1F` [Example 275, (S)—N-(Cyclopropyl(4-fluoro-3-methylphenyl)methyl)-3-((2iminooxazolidin-3-yl)methyl)-5-(1-isopropyl-3-(trifluoromethyl)-1H-pyrazol-4-yl)benzamide] the same measures were less than 0.1 nM and less than 100 nM.
